Laboratory results: ChEMBL document CHEMBL5725356, “Anti-fibrotic pyridinones” (2017)

assay: ET-1 Assay: Fibroblasts (primary human lung and dermal, HFL-1, 3T3 etc) are seeded in 96-well plates at ~15000 cells/well and serum starved for 0-48 hours. After media exchange, compounds serially diluted in DMSO are added to the cells. After a brief incubation of ~30 min, stimulants (TGFb, serum, LPA etc) are added followed by further incubation for 16-48 hours. Media is then harvested and stored frozen in plate format for later endothelin-1 (ET-1) determination by ELISA. Toxicity measurements are made using the ATPlite kit (Perkin-Elmer). ET-1 is quantified using an ELISA kit (R&D Systems). The amount of ET-1 produced in the assay wells are back-calculated using the ELISA standard. The ability of a compound to inhibit ET-1 production is typically analyzed by fitting dose-response curves to a 4-parameter logistic function to obtain an EC50 value.; conditions: HFL1

SMILES	EC50
O=c1ccc(C(F)(F)F)cn1-c1ccc(NCCN2CCN(CCO)CC2)cc1Cl	in the range around 125 µM
CCOc1ccc(-n2cc(-c3cnn(C)c3)c(NCc3ccc(F)cc3F)cc2=O)c(C)c1	< 50 µM
CCOc1ccc(-n2cc(-c3cnn(C)c3)c(NCc3ccc(OCCOC)cc3)cc2=O)c(C)c1	< 50 µM
CCOc1ccc(CNc2cc(=O)n(-c3ccc(OCC)cc3C)cc2-c2cnn(C)c2)c(C)c1	< 50 µM
CCOc1ccc(-n2cc(-c3cnn(C)c3)c(NCc3ccccn3)cc2=O)c(C)c1	in the range around 125 µM
CCOc1ccc(-n2cc(-c3cnn(C)c3)c(OCCOCCOC)cc2=O)c(C)c1	in the range around 125 µM
CCOc1ccc(-n2cc(-c3cnn(C)c3)c(OCCOC(C)C)cc2=O)c(C)c1	in the range around 125 µM
CCOc1ccc(-n2cc(-c3cnn(C)c3)c(NCc3ccc(C#N)cc3)cc2=O)c(C)c1	< 50 µM
CCOc1ccc(-n2cc(-c3cnn(C)c3)c(NCc3ccncc3)cc2=O)c(C)c1	in the range around 125 µM
Cn1cc(-c2cc(=O)n(-c3ccc(OC(F)(F)F)cc3)cc2-c2cnn(C)c2)cn1	in the range around 125 µM
CCOc1ccc(-n2cc(-c3cnn(C)c3)c(NCc3cccnc3)cc2=O)c(C)c1	< 50 µM
CCOc1ccc(-n2cc(-c3cnn(C)c3)c(OC3CCOCC3)cc2=O)c(C)c1	in the range around 125 µM
CCOc1ccc(-n2cc(-c3cnn(C)c3)c(NCc3cc(F)cc(F)c3)cc2=O)c(C)c1	< 50 µM
CCOc1ccc(-n2cc(-c3cnn(C)c3)c(N(C)Cc3ccccc3)cc2=O)c(C)c1	< 50 µM
Cn1cc(-c2cn(-c3ccc(OC(F)(F)F)cc3)c(=O)c3ncn(C)c23)cn1 [AKEX-0011]	< 50 µM
